# According to patent US11040970B2, “VMAT2 inhibitor compounds and compositions thereof” (Neurocrine Biosciences, Inc., priority 2017, dated 2021):
# Target: VMAT2 (Homo sapiens (Human), UniProt Q05940)
# Assay: VMAT2 radioligand binding assay: competition against 3H-dihydrotetrabenezine on human platelet homogenate (modified procedure)
# Conditions: 10 nM 3H-dihydrotetrabenezine, 25° C., 90 minutes
# Description: Examples of techniques for determining the capability of a compound to inhibit VMAT2 are provided below. The procedure is adapted from that described previously (see, e.g., Near, (1986), Mol. Pharmacol. 30: 252-57; Teng, et al., J. Neurochem. 71, 258-65, 1998). Homogenates from human platelets or Sprague-Dawley rat forebrain were prepared by homogenization and then washed by centrifugation as described previously (see, e.g., Hoare et al., (2003) Peptides 24:1881-97). […] Following incubation at 25° C. for two hours, bound radioligand was collected by rapid filtration onto GF/B glass fiber filters using a Unifilter-96 Harvester (PerkinElmer). Filter plates were pre-treated for 10 minutes with 0.1% polyethylenimine, and following harvesting the filter plates were washed with 800 μl VMAT2 binding buffer. Bound radioligand was quantified by scintillation counting using a Topcount NXT (PerkinElmer).
# Following incubation at 25° C. for 90 minutes, bound radioligand was collected by rapid filtration onto GF/B glass fiber filters using a Unifilter-96 Harvester (PerkinElmer). Filter plates were pre-treated with 0.1% polyethylenimine and allowed to dry overnight, and following harvesting the filter plates were washed with 800 μl VMAT2 binding buffer. Bound radioligand was quantified by scintillation counting using a Topcount NXT (PerkinElmer).
# Chain of VMAT2 (Q05940 whole entry): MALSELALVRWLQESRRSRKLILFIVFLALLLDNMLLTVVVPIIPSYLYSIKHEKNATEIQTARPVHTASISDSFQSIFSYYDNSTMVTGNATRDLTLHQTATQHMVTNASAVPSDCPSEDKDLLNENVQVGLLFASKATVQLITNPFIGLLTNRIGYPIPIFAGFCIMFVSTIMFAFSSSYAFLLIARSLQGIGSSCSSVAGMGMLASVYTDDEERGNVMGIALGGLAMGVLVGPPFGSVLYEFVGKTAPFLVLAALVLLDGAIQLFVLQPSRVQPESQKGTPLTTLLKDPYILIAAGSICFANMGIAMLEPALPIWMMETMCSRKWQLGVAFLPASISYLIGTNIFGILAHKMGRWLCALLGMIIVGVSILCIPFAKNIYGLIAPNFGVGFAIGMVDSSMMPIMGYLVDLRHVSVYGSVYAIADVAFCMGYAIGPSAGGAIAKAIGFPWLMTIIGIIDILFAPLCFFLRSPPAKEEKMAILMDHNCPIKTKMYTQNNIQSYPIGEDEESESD
row,Structure (SMILES),Ki
1,"COc1cc2c(cc1OCCF)CCN1C[C@@H](CC(C)(C)C)N(C)C[C@H]21 [Compound 11-6, (3R,11bS)-3-(2,2-dimethylpropyl)-9-(2-fluoroethoxy)-10-methoxy-2-methyl-1H,2H,3H,4H,6H,7H,11bH-piperazino[2,1-a]isoquinoline]",< 10 nM
2,"COc1cc2c(cc1OCC1CC1)CCN1C[C@@H](CC(C)(C)C)N(C)C[C@H]21 [Compound 11-7, (3R,11bS)-9-(cyclopropylmethoxy)-3-(2,2-dimethylpropyl)-10-methoxy-2-methyl-1H,2H,3H,4H,6H,7H,11bH-piperazino[2,1-a]isoquinoline]",< 10 nM
3,"COc1cc2c(cc1OCC1CCC1)CCN1C[C@@H](CC(C)(C)C)N(C)C[C@H]21 [Compound 11-8, (3R,11bS)-9-(cyclobutylmethoxy)-3-(2,2-dimethylpropyl)-10-methoxy-2-methyl-1H,2H,3H,4H,6H,7H,11bH-piperazino[2,1-a]isoquinoline]",< 10 nM
4,"COc1cc2c(cc1OCCCC(F)(F)F)CCN1C[C@@H](CC(C)(C)C)N(C)C[C@H]21 [Compound 11-9, (3R,11bS)-3-(2,2-dimethylpropyl)-10-methoxy-2-methyl-9-(4,4,4-trifluorobutoxy)-1H,2H,3H,4H,6H,7H,11bH-piperazino[2,1-a]isoquinoline]",< 10 nM
5,"COc1cc2c(cc1OCCCCF)CCN1C[C@@H](CC(C)(C)C)N(C)C[C@H]21 [Compound 11-10, (3R,11bS)-3-(2,2-dimethylpropyl)-9-(4-fluorobutoxy)-10-methoxy-2-methyl-1H,2H,3H,4H,6H,7H,11bH-piperazino[2,1-a]isoquinoline]",< 10 nM
6,"COCCOc1cc2c(cc1OC)[C@H]1CN(C)[C@H](CC(C)(C)C)CN1CC2 [Compound 11-11, (3R,11bS)-3-(2,2-dimethylpropyl)-10-methoxy-9-(2-methoxyethoxy)-2-methyl-1H,2H,3H,4H,6H,7H,11bH-piperazino[2,1-a]isoquinoline]",10 to 500 nM
7,"CCOc1cc2c(cc1OC)[C@H]1CN(C)[C@H](CC(C)(C)C)CN1CC2 [Compound 11-12, (3R,11bS)-3-(2,2-dimethylpropyl)-9-ethoxy-10-methoxy-2-methyl-1H,2H,3H,4H,6H,7H,11bH-piperazino[2,1-a]isoquinoline]",< 10 nM
8,"COc1cc2c(cc1OC(C)C)CCN1C[C@@H](CC(C)(C)C)N(C)C[C@H]21 [Compound 11-13, (3R,11bS)-3-(2,2-dimethylpropyl)-10-methoxy-2-methyl-9-(propan-2-yloxy)-1H,2H,3H,4H,6H,7H,11bH-piperazino[2,1-a]isoquinoline]",< 10 nM
9,"COc1cc2c(cc1OCCCF)CCN1C[C@@H](CC(C)(C)C)N(C)C[C@@H]21 [Compound 12-1, (3R,11bR)-3-(2,2-dimethylpropyl)-9-(3-fluoropropoxy)-10-methoxy-2-methyl-1H,2H,3H,4H,6H,7H,11bH-piperazino[2,1-a]isoquinoline]",10 to 500 nM
10,"COc1cc2c(cc1OC)[C@@H]1CN(C)[C@H](CC(C)(C)C)CN1CC2 [Compound 12-2, (3R,11bR)-3-(2,2-dimethylpropyl)-9,10-dimethoxy-2-methyl-1H,2H,3H,4H,6H,7H,11bH-piperazino[2,1-a]isoquinoline]",> 500 nM

# Test system: vesicular monoamine transporter-2 (VMAT2)
# Assay: not given
# Conditions: read-out: IC50 catecholamine uptake by VMAT2; cited from earlier work
row,Structure (SMILES),IC50
1,"COc1cc2c(cc1OC)C1CC(=O)C(CC(C)C)CN1CC2 (centres unmarked) [Tetrabenazine, 3-Isobutyl-9,10-dimethoxy-1,3,4,6,7,11b-hexahydro-2H-pyrido[2,1-a]-isoquinolin-2-one]",[…]
